In ChEMBL document CHEMBL5149973, “Agaricus bisporus-Derived Glucosamine Hydrochloride Facilitates Skeletal Injury Repair through Bmp Signaling in Zebrafish Osteoporosis Model” (J Nat Prod, 2021):
Calls of active or inactive are those of the source. The calls are words filed in the database; no cut-off is given here.

Experiments:
[1] = tested on: Osteoblast; experiment: Induction of osteoblast differentiation in transgenic osx mCherry Zebrafish embryo assessed as increase in Col10a1a mRNA expression in fin at 0.1 % measured after 15 days by semiquantitative PCR analysis; assay type: functional; details: Danio rerio, time 15.0 day
[2] = tested on: Osteoblast; experiment: Induction of osteoblast differentiation in transgenic osx mCherry Zebrafish embryo assessed as increase in Col1a2 mRNA expression in fin at 0.1 % measured after 15 days by semiquantitative PCR analysis; assay type: functional, tissue-based; details: Danio rerio, time 15.0 day
[3] = species: Danio rerio; experiment: Anti-osteoporosis activity in FAC-induced skeletal injury Zebrafish assessed as increase in cumulative bone optical density in caudal fins at 0.1 % measured for 10 day post fertilization; assay type: functional, organism-based
[4] = tested on: Osteoblast; experiment: Induction of osteoblast differentiation in transgenic osx mCherry Zebrafish embryo assessed as increase in Sox9b mRNA expression in fin at 0.1 % measured after 15 days by semiquantitative PCR analysis; assay type: functional, tissue-based; details: Danio rerio, time 15.0 day
[5] = species: Danio rerio; experiment: Anti-osteoporosis activity in FAC-induced skeletal injury Zebrafish assessed as increase in cumulative bone optical density in spine at 0.1 % measured for 10 day post fertilization; assay type: functional, organism-based
[6] = tested on: Osteoblast; experiment: Induction of osteoblast differentiation in transgenic osx mCherry Zebrafish embryo assessed as increase in Sox9a mRNA expression in fin at 0.1 % measured after 15 days by semiquantitative PCR analysis; assay type: functional, tissue-based; details: Danio rerio, time 15.0 day
[7] = species: Danio rerio; experiment: Suppression of Bmp signaling in Zebrafish tBr injected mRNA embryos assessed as reduction in indistinctive tail tissue at 2.5 uM measured at 26 hrs post fertilization; assay type: functional, Embryo; set-up: scale not given: the % may be the effect or the level left
[8] = species: Danio rerio; experiment: Suppression of Bmp signaling in Zebrafish tBr injected mRNA embryos assessed as reduction in slight loss of tail tissue at 2.5 uM measured at 26 hrs post fertilization; assay type: functional, Embryo; set-up: scale not given: the % may be the effect or the level left

In the case of `NCCCC(O)(P(=O)(O)O)P(=O)(O)O`, the Activity [1] was “Active”, the Activity [2] was “Active” and the Activity [3] was “Active”. For the same compound, the Activity [4] was “Active”, the Activity [5] was “Active” and the Activity [6] was “Active”.

`c1cc(-c2cnn3cc(-c4ccc(OCCN5CCCCC5)cc4)cnc23)ccn1` [DORSOMORPHIN] gave an Activity [7] of 80% and an Activity [8] of 80%.
